Measured values from article PMC7615676, “Short-course combination treatment for experimental chronic Chagas disease” (Science translational medicine, 2023).
Several values for one entry are separate records, joined by “and”; a condition that tells them apart may be missing. Equal values may be shown once. Read-outs that look alike come from different tables or passages of the source.

Experiments:
[1] = design: method as in PMID 21073628, PMID 20932171; conditions: patients; cited from earlier work
[2] = tested on: chronic T. cruzi infection (CL Brener) in BALB/c mice; design: method as in PMID 27748443; conditions: cited from earlier work
FaSSIF solubility assay = format: physicochemical; conditions: pH 6.5, 4 h
Procedure: Solubility of test compounds in fasted simulated intestinal fluid (FaSSIF) was determined at pH 6.5 after 4 h equilibration at rt. An amount of1 mL of FaSSIF buffer (3 mM sodium taurocholate, 0.75 mM lecithin in sodium phosphate buffer at pH 6.5) was added to manually weighed 1 mg of solid compound in a 2 mL HPLC autosampler vial. The resulting suspension was shaken at 900 rpm for 4 h at rt and then transferred to a Multiscreen HTS, 96-well solubility filter plate. The residual solid was removed by filtration. The supernatant solution was quantified by HPLC−UV using single-point calibration of a known concentration of the compound in DMSO. The dynamic range of the assay was 1−1000 μg/mL.

[3] = molecular target: T1, Human complex III (bc1), mitochondria from THP-1 (Homo sapiens, UniProt P00156); assay: human complex III inhibition assay; format: biochemical
T1 construct: Preparation of mitochondria from a human cell line (THP-1); endogenous in cells; host or cells: THP-1 (human) mitochondria
Procedure: Preparation of mitochondria from a human cell line (THP-1) was performed following published procedure ([72]). The protocol for the assay has been described in ([73]).

HepG2 cells = assay: Seahorse MST (mitochondrial stress test), oxygen consumption rate; format: cell-based; conditions: lowest concentration reducing OCR >15% vs DMSO
Procedure: To measure the Oxygen Consumption Rate (OCR) in cells following compound treatment, the Seahorse XFe96 Extracellular Flux Analyser (Agilent) was used ([69]). HepG2 cells were maintained in DMEM medium (Invitrogen #11966-025) supplemented with 10 mM galactose, 1 mM sodium pyruvate, 5 mM HEPES, 2 mM GlutaMAX, 10% fetal bovine serum and 50 μg/ml gentamycin. Cells were maintained in a 37 °C, 5% CO2 humidified atmosphere. The measurement of OCR was performed as previously described ([70], [71]) with minor modifications. Briefly, HepG2 cells were seeded in an XF96-well plate at 14000 cells per 100 μl cell culture medium per well and incubated in a 37 °C, 5% CO2 humidified atmosphere for 24 hours. Following incubation, the culture medium was replaced with 175 μl pre-warmed, serum-free XF base assay medium (Agilent), supplemented with 2 mM L-glutamine, 1 mM sodium pyruvate and 10 mM galactose (pH 7.4) and incubated at 37 °C for one hour. Test compounds (compound 3 and 4) were maintained in DMSO and a four-point dose response (final concentrations 10, 20, 40 and 80 μM), plus 0.4% DMSO control, were diluted to 8× concentration in XF assay medium and 25 μL was loaded into Port A of the XF Assay Cartridge. The mito-stress test components oligomycin (1 μM final), carbonyl cyanide-4-(trifluoromethoxy)-phenylhydrazon [FCCP] […]

[4] = tested on: isolated rat liver mitochondria; assay: calcium loading capacity (CLC) in rat liver mitochondria; format: biochemical; conditions: minimum effective concentration
Procedure: The CLC of freshly isolated liver mitochondria was determined as previously described ([70]). Briefly, mitochondria were suspended at 0.2 mg/ml in incubation buffer B, supplemented with 100 μM arsenazo III, 2.5 μM rotenone and 1 μg/ml oligomycin in each well of a 96 well microplate (control and treated mitochondria were assayed simultaneously) and absorbance measured every 2 seconds at 650 nm in a FlexStation3 microplate reader (Molecular Devices, Sunnyvale, CA, USA). After approximately 1 minute of reading, Ca^2+ was added (0.5-1 μmol/ mg mitochondrial protein) followed by the addition of 10 mM succinate as the mitochondrial substrate. The CLC was calculated as the difference in optical density (ΔOD) between the point at which mitochondria were energized and the point where mitochondrial permeability transition was triggered (i.e., the lowest OD reading before calcium release via MPT).
The concentration-response relationship was modelled using a robust fit of a cubic polynomial regression ([74], [75]). The fitted curves were then used to calculate the Minimum Effective Concentration (MEC). The MEC was defined as the lowest concentration where the fitted curve exceeded 3 standard deviations (SD) around the DMSO mean response. SD was estimated from the deviations of DMSO and compound treated wells around the fitted means, using a robust estimator based on Gini’s mean difference ([76]).

[5] = 200.00 µM, read-out: Average % inhibition of human bc1

O=C(Cn1ccnc1[N+](=O)[O-])NCc1ccccc1 [Benznidazole, reference compound]
discontinuation of treatment prior to completion due to adverse side-effects [1]: up to 29% | minimum efficacious dose in a five-day chronic study [2]: 100 mg/kg

COc1cc(F)ccc1-c1c(C)[nH]c2nc(N)nc(C)c12 [Compound 2, 5-(4-Fluoro-2-methoxyphenyl)-4,6-dimethyl-7H-pyrrolo[2,3-d]pyrimidin-2-amine]
FaSSIF pH 6.5 (FaSSIF solubility assay): 153 µg/mL

COc1cc(Cl)ccc1-c1c(C)[nH]c2nc(N)nc(C)c12 [Compound 3, 5-(4-Chloro-2-methoxyphenyl)-4,6-dimethyl-7H-pyrrolo[2,3-d]pyrimidin-2-amine]
% inhibition of human bc1, individual replicates ([3]; 0.09 µM): -102.79% and -0.39% and 23.45% and -1.32% and -77.48% and 6.58% | inhibition at 0.09 µM ([3]; 0.09 µM): -25.3% | % inhibition of human bc1, individual replicates ([3]; 0.27 µM): -31.71% and -5.91% and 16.57% and 7.05% and 0.38% and 2.42% | inhibition at 0.27 µM ([3]; 0.27 µM): -1.87% | % inhibition of human bc1, individual replicates ([3]; 0.82 µM): -55.04% and -6.88% and 19.61% and 6.94% and 1.93% and 10.74% | inhibition at 0.82 µM ([3]; 0.82 µM): -3.78% | % inhibition of human bc1, individual replicates ([3]; 2.47 µM): -19.11% and -13.68% and 7.11% and 15.66% and -8.81% and 14.23% | inhibition at 2.47 µM ([3]; 2.47 µM): -0.76% | % inhibition of human bc1, individual replicates ([3]; 7.41 µM): -1.93% and 0.10% and 21.95% and 17.90% and 0.73% and -3.46% | inhibition at 7.41 µM ([3]; 7.41 µM): 5.88% | % inhibition of human bc1, individual replicates ([3]; 22.22 µM): -14.09% and -16.93% and 21.42% and 11.31% and -5.13% | inhibition at 22.22 µM ([3]; 22.22 µM): -0.68% | % inhibition of human bc1, individual replicates ([3]; 66.67 µM): -178.30% and 13.25% and 22.71% and -32.39% and -2.98% and 16.87% | inhibition at 66.67 µM ([3]; 66.67 µM): -26.8% | % inhibition of human bc1, individual replicates ([3]; 200.00 µM): 22.88% and 27.88% and 27.19% and -35.32% and 30.21% and 59.63% | inhibition at 200 µM [3, 5]: 22.1% | inhibition at 200 µM ([3]; 200 μM, read-out: Human complex III inhibition at 200μM): 20% | inhibition of human complex III ([3]; concentrations up to and including 66.7 μM): did not inhibit | FaSSIF pH 6.5 (FaSSIF solubility assay): 76 µg/mL | Seahorse MST, HepG2, LEC (HepG2 cells): 80 µM | Calcium loading capacity, rat mitochondria, MEC [4]: 5.7 µM

COc1ccc(-c2c(C)[nH]c3nc(N)nc(C)c23)c(OC)c1 [Compound 4, 5-(2,4-Dimethoxyphenyl)-4,6-dimethyl-7H-pyrrolo[2,3-d]pyrimidin-2-amine]
EC50 [3]: > 200 µM | % inhibition of human bc1, individual replicates ([3]; 0.09 µM): -12.21% and 6.38% | inhibition at 0.09 µM ([3]; 0.09 µM): -2.92% | % inhibition of human bc1, individual replicates ([3]; 0.27 µM): -0.73% and 8.86% and -14.09% | inhibition at 0.27 µM ([3]; 0.27 µM): -1.99% | % inhibition of human bc1, individual replicates ([3]; 0.82 µM): -0.42% and -1.05% and -3.03% | inhibition at 0.82 µM ([3]; 0.82 µM): -1.5% | % inhibition of human bc1, individual replicates ([3]; 2.47 µM): -7.80% and 0.71% and -1.55% | inhibition at 2.47 µM ([3]; 2.47 µM): -2.88% | % inhibition of human bc1, individual replicates ([3]; 7.41 µM): 20.02% and -3.97% and 5.85% | inhibition at 7.41 µM ([3]; 7.41 µM): 7.3% | % inhibition of human bc1, individual replicates ([3]; 22.22 µM): 11.11% and -1.32% and 9.84% | inhibition at 22.22 µM ([3]; 22.22 µM): 6.55% | % inhibition of human bc1, individual replicates ([3]; 66.67 µM): 21.01% and 18.54% and -10.78% | inhibition at 66.67 µM ([3]; 66.67 µM): 9.59% | % inhibition of human bc1, individual replicates ([3]; 200.00 µM): 5.17% and 18.62% and -0.60% | inhibition at 200 µM [3, 5]: 7.73% | FaSSIF pH 6.5 (FaSSIF solubility assay): 107 µg/mL | Seahorse MST, HepG2, LEC (HepG2 cells): >80 µM | Calcium loading capacity, rat mitochondria, MEC [4]: >200 µM
